Laboratory results as given in patent US8175371B2, “Method for imaging and differential analysis of cells” (Amnis Corporation, priority 2004, dated 2012).

System: Jurkat cells
Experiment: Annexin V / 7-AAD staining of treated Jurkat cells, evaluated by flow cytometry and fluorescence microscopy
Assay type: cell-based, Human
Conditions: Jurkat T cells, Alexa Fluor 488 annexin V and 7-AAD
Method: Human acute T leukemic Jurkat cell line was obtained from ATCC (Rockville, Md.; catalog number CRL-1990) and maintained in RPMI 1640 (Gibco, Grand Island, N.Y.) containing 5% fetal bovine serum, 1 mM sodium pyruvate (Mediatech, Herndon, Va.), 100 µM nonessential amino acids, 100 U/ml penicillin, 100 µg/ml streptomycin, and 2 mM L-glutamine (BioWhittaker, Walkersville, Md.) in 5% CO2 atmosphere at 37 degrees C. The density of exponentially growing cells was less than 3×10^5 cells per ml at the time of all treatments. To induce apoptosis, cells were treated for 18 hours with 1 µM camptothecin (CPT, Sigma), a DNA topoisomerase I inhibitor. […]
Control (untreated) cell, CPT treated (apoptotic) cells, and peroxide treated (necrotic) cells were independently counted and washed once in phosphate buffered saline (PBS, Fair Lawn, N.J.). […] Each cell group was washed in annexin V Binding Buffer, fixed in 2% paraformaldehyde (Sigma), and analyzed as either single populations or as a mixture by flow cytometry and immunofluorescence microscopy.
For flow cytometry, cell fluorescence data excited by a 488 nm laser were acquired using the FACSort™ cytometer (BD Immunocytometry Systems, San Jose, Calif.) and analyzed using CellQuest™ (BD Immunocytometry Systems). […]

CC[C@@]1(O)C(=O)OCc2c1cc1n(c2=O)Cc2cc3ccccc3nc2-1 [CPT, camptothecin]
annexin V / 7-AAD staining of treated cells (apoptosis induction) (1 µM CPT for 18 hours, FIG. 2B): two populations of cells, those that were annexin V^+ (single positive, SP, or early apoptotic cells), and those that were annexin V^+, 7-AAD^+ (double positive, DP, or late apoptotic cells)

OO [peroxide, hydrogen peroxide]
annexin V / 7-AAD staining of treated cells (necrosis induction) (0.3% hydrogen peroxide for 1 hour, FIG. 2C): stained positively with both annexin V and 7-AAD
